In patent US11446287B2, “Compounds and methods for EP300 or CBP modulation and indications therefor” (Opna Immuno-Oncology SA, priority 2019, dated 2022):
pIC50: −log10 of the molar value.

biological target: T1, Recombinant human CBP containing the bromodomain (CBP-BD (1043-1159)) (Homo sapiens, UniProt Q92793); assay: CBP Alphascreen binding assay; conditions: read-out: CREBBP (CBP) IC50
T1 construct: Recombinant human CBP bromodomain (CBP-BD (1043-1159)); made in house; host or cells: E. coli BL21-CodonPlus (DE3), modified pET vector
T1 sequence (Q92793 1081-1197): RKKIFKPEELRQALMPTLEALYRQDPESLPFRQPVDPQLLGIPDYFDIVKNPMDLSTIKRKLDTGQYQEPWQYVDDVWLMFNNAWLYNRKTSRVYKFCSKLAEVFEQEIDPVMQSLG
How it was run: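 Buffer: 50 mM HEPES pH 7.5, 50 mM NaCl, 0.01% BSA, 0.01% Triton X-100, 2 mM DTT. The signal was normalised to plate controls and fitted with a four-parameter curve to give IC50.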

Row | Structure (SMILES) | pIC50
1 | Cc1noc(C)c1-c1cnc2c(-c3cccc(C(=O)O)c3)c(C(F)(F)F)n([C@@H](C)c3ccccn3)c2c1 [P-0162, (S)-3-(6-(3,5-dimethylisoxazol-4-yl)-1-(1-(pyridin-2-yl)ethyl)-2-(trifluoromethyl)-1H-pyrrolo[3,2-b]pyridin-3-yl)benzoic acid] | 6.00 to 10.00
2 | Cc1noc(C)c1-c1cnc2c(C(O)(C3CC3)C3CC3)cn(-c3ccc(C(=O)O)cc3OC(F)(F)F)c2c1 [P-0163, 4-(3-(dicyclopropyl(hydroxy)methyl)-6-(3,5-dimethylisoxazol-4-yl)-1H-pyrrolo[3,2-b]pyridin-1-yl)-3-(trifluoromethoxy)benzoic acid] | 6.00 to 10.00
3 | Cc1noc(C)c1-c1cnc2c(-c3cc(C(=O)O)ccc3Cl)cn(C(C)(c3ccccn3)c3ccccn3)c2c1 [P-0164, 4-chloro-3-(1-(1,1-di(pyridin-2-yl)ethyl)-6-(3,5-dimethylisoxazol-4-yl)-1H-pyrrolo[3,2-b]pyridin-3-yl)benzoic acid] | 6.00 to 10.00
4 | CCOc1cc(C(=O)O)cc(OCC)c1-n1cc(C(O)(C2CC2)C2CC2)c2ncc(-c3c(C)noc3C)cc21 [P-0165, 4-(3-(dicyclopropyl(hydroxy)methyl)-6-(3,5-dimethylisoxazol-4-yl)-1H-pyrrolo[3,2-b]pyridin-1-yl)-3,5-diethoxybenzoic acid] | 6.00 to 10.00
5 | Cc1noc(C)c1-c1cnc2c(-c3cc(C(=O)O)ccc3C#N)cn(C(C)(c3ccccn3)c3ccccn3)c2c1 [P-0166, 4-cyano-3-(1-(1,1-di(pyridin-2-yl)ethyl)-6-(3,5-dimethylisoxazol-4-yl)-1H-pyrrolo[3,2-b]pyridin-3-yl)benzoic acid] | 6.00 to 10.00
6 | C#Cc1ccccc1-c1cn(C(C)(c2ccccn2)c2ccccn2)c2cc(-c3c(C)noc3C)cnc12 [P-0167, 4-(1-(1,1-di(pyridin-2-yl)ethyl)-3-(2-ethynylphenyl)-1H-pyrrolo[3,2-b]pyridin-6-yl)-3,5-dimethylisoxazole] | 6.00 to 10.00
7 | CCOc1cc(C(=O)O)cc(OCC)c1-n1cc(-c2ccccc2)c2ncc(-c3c(C)noc3C)cc21 [P-0168, 4-(6-(3,5-dimethylisoxazol-4-yl)-3-phenyl-1H-pyrrolo[3,2-b]pyridin-1-yl)-3,5-diethoxybenzoic acid] | 6.00 to 10.00
8 | Cc1noc(C)c1-c1cnc2c(-c3ccccc3C#N)cn(C(C)(c3ccccn3)c3ccccn3)c2c1 [P-0169, 2-(1-(1,1-di(pyridin-2-yl)ethyl)-6-(3,5-dimethylisoxazol-4-yl)-1H-pyrrolo[3,2-b]pyridin-3-yl)benzonitrile] | 6.00 to 10.00
